Results from PubChem BioAssay (NCI).
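Method: 48-hour compound exposure of cells in 96-well plates, five concentrations, linear interpolation of endpoints. Definition used: TGI = concentration required for complete inhibition of growth.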

Key:
Assay in all cases: DTP human tumour cell line panel, 48 h
COLO 205 colon = test system: COLO 205 colon
OVCAR-8 ovarian = test system: OVCAR-8 ovarian
UO-31 renal = test system: UO-31 renal
M19-MEL melanoma = test system: M19-MEL melanoma
OVCAR-5 ovarian = test system: OVCAR-5 ovarian
CCRF-CEM leukemia = test system: CCRF-CEM leukemia
MALME-3M melanoma = test system: MALME-3M melanoma
KM20L2 colon = test system: KM20L2 colon
LXFL 529 NSCLC = test system: LXFL 529 NSCLC
OVCAR-4 ovarian = test system: OVCAR-4 ovarian
DLD-1 colon = test system: DLD-1 colon
SN12C renal = test system: SN12C renal
MOLT-4 leukemia = test system: MOLT-4 leukemia
K-562 leukemia = test system: K-562 leukemia
IGROV1 ovarian = test system: IGROV1 ovarian
A549 NSCLC = test system: A549 NSCLC
HCC-2998 colon = test system: HCC-2998 colon
UACC-62 melanoma = test system: UACC-62 melanoma
TK-10 renal = test system: TK-10 renal
ACHN renal = test system: ACHN renal
HCT-15 colon = test system: HCT-15 colon
SNB-78 CNS = test system: SNB-78 CNS
SNB-75 CNS = test system: SNB-75 CNS
HOP-18 NSCLC = test system: HOP-18 NSCLC
SF-539 CNS = test system: SF-539 CNS
SNB-19 CNS = test system: SNB-19 CNS
HOP-92 NSCLC = test system: HOP-92 NSCLC
M14 melanoma = test system: M14 melanoma
SW-620 colon = test system: SW-620 colon
NCI-H522 lung = test system: NCI-H522 lung
CAKI-1 renal = test system: CAKI-1 renal
SK-MEL-5 melanoma = test system: SK-MEL-5 melanoma
HL-60(TB) leukemia = test system: HL-60(TB) leukemia
EKVX NSCLC = test system: EKVX NSCLC
SF-295 CNS = test system: SF-295 CNS
XF 498 CNS = test system: XF 498 CNS
HOP-62 NSCLC = test system: HOP-62 NSCLC
786-0 renal = test system: 786-0 renal
U251 CNS = test system: U251 CNS
SF-268 CNS = test system: SF-268 CNS
SK-MEL-28 melanoma = test system: SK-MEL-28 melanoma
UACC-257 melanoma = test system: UACC-257 melanoma
RXF 393 renal = test system: RXF 393 renal
SK-MEL-2 melanoma = test system: SK-MEL-2 melanoma
SR leukemia = test system: SR leukemia
NCI-H226 lung = test system: NCI-H226 lung
OVCAR-3 ovarian = test system: OVCAR-3 ovarian
NCI-H23 lung = test system: NCI-H23 lung
HT29 colon = test system: HT29 colon
RPMI-8226 leukemia = test system: RPMI-8226 leukemia
HCT-116 colon = test system: HCT-116 colon
SK-OV-3 ovarian = test system: SK-OV-3 ovarian
DMS 114 small cell lung = test system: DMS 114 small cell lung
DMS 273 small cell lung = test system: DMS 273 small cell lung
A498 renal = test system: A498 renal
NCI-H460 lung = test system: NCI-H460 lung
KM12 colon = test system: KM12 colon
LOX IMVI melanoma = test system: LOX IMVI melanoma

Measured: TGI

COc1ccc2c(c1)CN1CCc3c(cc(OC)c(OC)c3OC)C1C2 (stereo unspecified)
not listed: A498 renal | NCI-H460 lung | KM12 colon | LOX IMVI melanoma
> 100 µM: all other assays above

O=C1Nc2cc(F)ccc2C1=O
not listed: SR leukemia | OVCAR-3 ovarian | HCT-116 colon
> 100 µM: all other assays above

COc1ccc2c(c1)CCc1c-2n[nH]c1-c1[nH]nc2c1CCc1cc(OC)ccc1-2
98.5 µM: HOP-18 NSCLC
63.2 µM: SF-539 CNS
56.3 µM: HOP-62 NSCLC
67.4 µM: NCI-H522 lung
78.1 µM: HOP-92 NSCLC
52.8 µM: DMS 273 small cell lung
85.9 µM: NCI-H226 lung
39.5 µM: SF-295 CNS
41.1 µM: 786-0 renal
92.7 µM: CAKI-1 renal
61.3 µM: SNB-75 CNS
71.2 µM: XF 498 CNS
not listed: OVCAR-4 ovarian | RXF 393 renal | OVCAR-3 ovarian | RPMI-8226 leukemia
> 100 µM: all other assays above

CC(C)(C)c1ccnc(N=C2N=C(Nc3cc(C(C)(C)C)ccn3)c3ccccc32)c1
75.5 µM: HOP-62 NSCLC
53.1 µM: CAKI-1 renal
49 µM: SK-OV-3 ovarian
30.8 µM: HCT-116 colon
72.1 µM: IGROV1 ovarian
44.8 µM: NCI-H522 lung
43.9 µM: 786-0 renal
41.7 µM: OVCAR-8 ovarian
85.8 µM: MOLT-4 leukemia
51 µM: U251 CNS
52 µM: SF-295 CNS
46.1 µM: TK-10 renal
47.1 µM: HOP-92 NSCLC
54.9 µM: RXF 393 renal
53.4 µM: A498 renal
44.4 µM: SNB-19 CNS
75 µM: SNB-78 CNS | HT29 colon
37.9 µM: SF-268 CNS
63.7 µM: MALME-3M melanoma
76.1 µM: UACC-257 melanoma
47.4 µM: OVCAR-3 ovarian
59.6 µM: KM20L2 colon | HOP-18 NSCLC
94.6 µM: NCI-H23 lung
62.3 µM: A549 NSCLC
86.8 µM: SK-MEL-28 melanoma
38.6 µM: XF 498 CNS
65.3 µM: UO-31 renal
not listed: HCC-2998 colon | SK-MEL-5 melanoma | RPMI-8226 leukemia | DMS 114 small cell lung | DMS 273 small cell lung
> 100 µM: all other assays above
